Test results as given in a melting point compilation (Tetko et al.; mined from patent text by program, amines drawn as free bases though some values may be those of a salt).

SMILES	melting point [°C]
OC1(C=Cc2ccc(-c3cccnc3)cc2)CN2CCC1CC2 (stereo unspecified)	195 to 198
CC(=O)Nc1nc(NC(C)=O)nc(-c2ccc(-c3ccccc3)cc2)n1	> 260
COC(=O)Nc1nc2ccc(OS(=O)(=O)c3cccc(OC(F)(F)C(F)F)c3)cc2[nH]1	186
CN1CCC(c2n[nH]c3ccccc23)CC1	168 to 170
CC1=NC2CN=C(c3ccccc3F)c3cc(Cl)ccc3C2C(=O)N1 (stereo unspecified)	150 to 165
OCC1=Cc2cc3ccccc3n2CC1	139 to 142
O=C(c1ccccc1)c1cccc(Cl)c1[N+](=O)[O-]	126
Cn1c(-c2cnn(-c3c(Cl)cc(C(F)(F)F)cc3Cl)n2)nc(C#N)c1C#N	154 to 156
CCOc1ccc2nc(COc3ccc(CC4SC(=O)NC4=O)cc3)n(C)c2n1 (stereo unspecified)	245 to 246
N#CCCNc1ccc(CCCN2CCN(c3ccccc3)CC2)cc1	141 to 143
N#Cc1c(N2CCCCC2)cc(-c2ccc(F)cc2)c2c1-c1ccccc1C2	176 to 178
COc1ccccc1CNc1ccc2cc(Nc3ncco3)ccc2n1	205
COc1ccc(-c2ccccn2)c(NC(=O)CC(C)N)c1 (stereo unspecified)	185 to 188
CCN(CC)CCNc1ccc(CNS(C)(=O)=O)c2sc3ccc(Br)cc3c(=O)c12	134 to 139
CC(=S)NCC1CN(c2ccc(C(=O)NN)c(F)c2)C(=O)O1 (stereo unspecified)	177
C[Si](C)(C)OCCNc1ccc(NCCO[Si](C)(C)C)c2c1C(=O)c1ccccc1C2=O	123 to 126
CC=CC1=C(O)C(=O)c2ccccc2C1=O	133 to 134
CN(C(CCN1C(=O)c2ccccc2C1=O)C(=O)O)S(=O)(=O)c1ccc(Oc2ccc(Cl)cc2)cc1 (stereo unspecified)	166 to 167
c1ccc(C2Nc3c4c(nc5ccccc35)CCCC4O2)cc1 (stereo unspecified)	225 to 235
Oc1cc2onc(C3CCCCC3)c2cc1O	177
CCCCCCCCCCCc1ccc(F)c(-c2nc(-c3ccccc3Cl)nn2C)c1	35 to 37
COC(=O)C(C)c1ccc2c(c1)C(=O)Cc1cccnc1S2 (stereo unspecified)	98 to 99.5
Cc1cc(-n2cnnc2)cc(C=O)c1N	250 to 252

SMILES	melting point [°C]
CS(=O)(=O)Nc1ccccc1C(=O)C1CCCCC1	119 to 120
O=C1OC(CCc2ccccc2)(c2ccccc2)CC(O)=C1CCc1ccccc1 (stereo unspecified)	68 to 70
CSc1cc(CCC(=O)OC(C)(C)C)nc(-c2nc(=O)c3ccccc3s2)c1	155 to 156
COC(=O)Cc1cn(-c2ccccc2)nc1O	144 to 145
Cc1cc(C)cc(-c2c(-c3ccncc3)sc3nc(=O)cc(N)n23)c1	275 to 278
CC(C)c1cc(C(C)C)n(-c2ccc(NC(=O)c3cccnc3)cc2)n1	190 to 192
COc1ccc(N2Cc3cnc(Nc4ccccc4)nc3N([C@@H](C)CO)C2=O)cc1	140 to 147
COc1ccc(N2CCN(c3c(C)c(C)c4c(c3C)C(C(C)(C)C)C(C)(C)O4)CC2)cc1 (stereo unspecified)	144 to 146
CCC(=O)SCCNC(=O)CCNC(=O)OCc1ccccc1	77 to 104
CCCc1cccc2[nH]c(C(=O)OCC)cc(=O)c12	153 to 154
CC1=Cc2ccc(Cl)cc2C(c2ccc([N+](=O)[O-])c(C)c2)=NN1C(=O)NC1CC1	221 to 223
N#Cc1c(N)oc2c1c(Cc1ccccc1)c(O)c1ccccc12	224 to 225
CC(C)n1cc(-c2ccc(Oc3ccccc3)c(CO)c2)c2c(Cl)ncnc21	157 to 159
N#Cc1c(N2CCCSCC2)cc[nH]c1=S	265 to 270
COc1ccc(CNc2nc(COCC(=O)O)nc3sc4c(c23)CCCC4)cc1Cl	136 to 137
CC(C)Oc1cc(-n2c(=O)[nH]c(C(F)(F)C(F)(F)F)c(F)c2=O)c(F)cc1Cl	160 to 162
CCC[C@H]1CN(c2c(F)cc3c(=O)c(C(=O)O)cn([C@@H]4C[C@@H]4F)c3c2OC)C[C@H]1N	79 to 83
CC(C)(C)Sc1c(CC(C)(C)C(=O)O)n(Cc2ccc(Cl)cc2)c2ccc(OCc3cc4ccccc4cn3)cc12	228
C=CCOn1c(=O)c2cc(F)c(F)cc2n(Cc2ccccc2)c1=O	130 to 132
CC(C)c1nc(CO)n(C)c1Sc1cc(Cl)cc(Cl)c1	157 to 158
CCOC(=O)c1c(Cl)c(Cl)c(Cl)c(Cl)c1C#N	74 to 75
CCCc1c(OCCCCC2CC(=O)c3ccc(OCC(=O)O)c(CCC)c3O2)ccc(C(C)=O)c1O (stereo unspecified)	164 to 167

The next lines start with the values.

melting point [°C]	SMILES
101 to 102	CC(C)[Si](C)(C)CCCSCCCNC(=O)n1cc(F)c(=O)[nH]c1=O
106 to 111	CC(Oc1ccc(C(C)(C)C)cc1C(C)(C)C)C(=O)O (stereo unspecified)
215	O=C(Cl)c1c(Br)c(Br)c([N+](=O)[O-])c2c1OCCO2
193	Cc1cc(C(O)CN2CCC(O)(c3cccc(F)c3)CC2)c(C)cc1O (stereo unspecified)
255 to 256	COc1nc(C)n2nc(S(=O)(=O)Nc3c(Cl)cccc3Cl)nc2c1Cl
107 to 108	COC(=O)c1cc(SC)cnc1C1=NC(C)(C(C)C)C(=O)N1 (stereo unspecified)
131 to 132	CC1CCN(C(=O)[C@H](CCCSc2ccccn2)NS(=O)(=O)c2ccc3ccccc3c2)CC1
60 to 62	C=CCC(=O)S/C=C\C(=O)NCCCCCCCC
189 to 191	CC1(CN)CCN(c2c(F)cc3c(=O)c(C(=O)O)cn(C4CC4)c3c2Cl)C1 (stereo unspecified)
148 to 150	N#CCc1cn2cccc(OCc3ccccc3)c2n1
187 to 188	Nc1nc(N)nc(CCC(Cl)(Cl)Cl)n1
192 to 195	CS(=O)(=O)c1ccc(-c2cnn(-c3ccc(F)cc3)c(=O)c2N2CCCC2)cc1
96 to 97.5	CON=C(c1ncno1)c1ccccc1COc1ccc(Cl)cc1
235 to 236	CSc1nnc2c(=O)[nH]c(-c3ccccc3OCC3CC3)nc2n1
134 to 136	CC1(C)Cc2nsc(=Nc3c(F)cc(Cl)c4nc(Cl)sc34)n2C1
36 to 38	COc1cc(C=C(Br)Br)ccc1OC(C)C
122 to 128	CCCc1c(OCCCCCOc2ccc(C(=O)c3cccc(C(=O)O)c3)cc2CCC(=O)O)ccc2c1OCCC2=O
193 to 195	Cc1cc(-c2nc3ccccc3s2)ccc1N
126 to 128	Cn1cc(Br)cc(Nc2cc3c(cn2)CCN(C(=O)OC(C)(C)C)C3)c1=O
160 to 162	Cc1ccc(-n2nc(Cl)cc2-c2ccc(S(C)(=O)=O)cc2)cc1F
150 to 152	N#Cc1ccc(CN2CC=C(/C=C/c3ccc(F)cc3)CC2)cc1
> 300	C#Cc1cc2nc(O)c(O)nc2cc1[N+](=O)[O-]
152 to 153	Cc1oc(-c2ccccc2)nc1COc1ccc2c(-c3ccccc3)c(CO)oc2c1
222 to 224	COc1ccc(C2=C(/C=C/C(=O)O)CCc3cc(OC)ccc32)cc1
102 to 103	CC(=O)c1c(O)cccc1OCC(C)(O)Oc1ccc(Br)cc1 (stereo unspecified)
215 to 216	O=C(c1ccc(Nc2ccnc3cc(C(F)(F)F)ccc23)cc1)N1CCC(S(=O)c2ccc(F)cc2)CC1 (stereo unspecified)
